Test results published in US20140142106A1, “METHOD FOR TREATING PERITONEAL FIBROSIS” (TAIPEI VETERANS GENERAL HOSPITAL, priority 2012, published 2014).

Assays:
[1] = test system: CB1R and CB2R expression in MeT-5A cells; assay: PCR assessment of CB1R and CB2R expression after TGF-β1 treatment; format: cell-based, human; conditions: exogenous TGF-β1, RT-PCR
Description: (§1) The MeT-5A human mesothelial cell line, obtained from the American Type Culture Collection (ATCC, Manassas, Va., USA), was cultured in DMEM (Biological Industries, Israel) containing 15% fetal bovine serum (Thermo Scientific, Waltham, Mass., USA), and 1% penicillin/streptomycin/L-glutamine (Biological Industries, Israel). The primary culture of human peritoneal mesothelial cells (HPMC) were prepared as previously described. All patient materials were processed following the ethics regulations of the Institutional Review Board of Taipei Veterans General Hospital.
(§2) For mRNA expression analysis of peritoneal tissue TGF-β1, VEGF, and Snail, the rat peritoneum was resected and incubated with trypsin at 37° C. for 30 minutes. The mesothelium was then scratched from peritoneal surface and collected for reverse transcription-polymerase chain reaction (RT-PCR). In the mesothelial cell culture, the mRNA expression of CB1R, CB2R, and type I collagen were also assessed by the PCR analysis. Total RNA was extracted with TRIzol (Invitrogen, Carlsbad, Calif., USA). Contaminated genomic DNA was removed with RNAse-free DNAse (Ambion, Austin, Tex., USA) following the manufacturer's protocol. First-strand cDNA was synthesized from total RNA with Superscript™ first-strand cDNA synthesis system for RT-PCR (Invitrogen, Carlsbad, Calif., USA) using Oligo(dT) as primers. GAPDH was used as control. […]

[2] = humans, long-term basis; cited from earlier work
[3] = test system: TGF-β1, VEGF, and Snail mRNA in rat peritoneal tissue; assay: RT-PCR of rat peritoneal tissue after MGO treatment; format: in vivo, Sprague-Dawley (SD) rats; conditions: representative PCR
Description: (§3) All animal experiments were performed following the guidelines of the Institutional Committee for Animal Experimentation of Taipei Veterans General Hospital. Five week-old male Sprague-Dawley (SD) rats were purchased from the Laboratory Animal Center of National Yang-Ming University. Peritoneal dialysis fluid (PDF) was prepared according to Hirahara et al. [10;22], containing 2.5% glucose, 100 mmol/L NaCl, 35 mmol/L sodium lactate, 2 mmol/L CaCl2, and 0.7 mmol/L MgCl2, in a pH of 5.0. To test MGO effects, fifty mL/kg of PDF containing 0, 3, 6, 12 mM MGO (Sigma, St. Louis, Mo., USA) were injected intra-peritoneally for ten consecutive days. Dimethyl sulfoxide (DMSO) (Sigma, St. Louis, Mo., USA) was used as the solvent of MGO. For investigation of the effects of CBR ligands, SD rats were pretreated with PDF containing either a selective CB1R antagonist, AM281 (Alexis Biochemicals, Enzo Life Sciences, Farmingdale, N.Y., USA) (1 mg/kg/day) or a selective CB2R agonist, AM1241 (Sigma, St. Louis, Mo., USA) (1 mg/kg/day) for 3 days followed by continuous treatment of PDF containing respective CBR ligands (AM281 or AM1241) and 6 mM MGO for 10 days. Animals receiving PDF containing DMSO vehicle (without MGO) were used as control (n=6/group). All animals were euthanized at the end of experiments by exsanguinations under general anesthesia.
as §2, with “protocol.” for “protocol. First-strand cDNA was synthesized from total RNA with Superscript™ first-strand cDNA synthesis system for RT-PCR (Invitrogen, Carlsbad, Calif., USA) using Oligo(dT) as primers. GAPDH was used as control.”

[4] = test system: MeT-5A human mesothelial cell line; assay: TGF-β1-treated MeT-5A mesothelial cells: morphology, immunofluorescent staining; format: cell-based
Description: as §1
(§4) To assess the effects of CB1R antagonist on mesothelial cells, we pretreated the MeT-5A cells and RPMC with 5 μM of AM281 for 1 hour, and followed by simultaneous AM281 and TGF-β1 (R&D systems, Minneapolis, Minn., USA) treatment for 5 days. Various TGF-β1 concentrations (0.1 to 1.0 ng/mL) were used. In the CB2R experiment, AM1241 was used instead to test MeT-5A cells and HPMC.
For immunofluorescent studies, we grew mesothelial cells in slide flasks (Lab-Tek II; Nalge Nunc. Naperville, Ill., USA).
Cells were observed using a confocal LASER microscope (Leica, Wetzlar, Germany), and fluorescent intensity was analyzed using an image-processing software (AlphaEaseFC 4.0, Alpha Innotech, Santa Clara, Calif., USA). The cytoplasmic fluorescent intensity of individual cell is defined as integrated density value (IDV) of selected cytoplasmic area; the average fluorescent intensity of an image field is defined as average density value (ADV=total IDV/total cytoplasmic area).

TGF-β1-activated PI3K = assay: Western blot of PI3K in MeT-5A cells; format: cell-based, human; conditions: p110 catalytic subunit
Description: as §4
Phosphatidyl inositol 3 kinase (PI3K) activity in the MeT-5A cells was assessed by Western blot. Cell lysates were subjected to SDS-PAGE and probed with primary antibodies against the p110 catalytic subunit of PI3K (Upstate Millipore, Billerica, Mass., USA) or β-actin (Amersham Life Science, Buckinghamshire, UK).

[5] = test system: MGO-induced peritoneal fibrosis; assay: MGO-induced peritoneal fibrosis in rats, effects of CBR ligands (histology, morphometry); format: in vivo, Sprague-Dawley (SD) rats; conditions: 1 mg/kg/day in PDF i.p., n=6; for MGO-induced peritoneal thickening: 3 days pretreatment then 10 days with 6 mM MGO, Masson's trichrome
Description: as §3
Certain sections of rat peritoneal tissues were frozen at −80° C. for immunofluorescent analysis, while the remainder were fixed in a neutral formalin solution and then embedded in paraffin for histological analysis. For immunofluorescent staining of CBR, rat brain and spleen were used as the positive control of CB1R and CB2R, respectively. For peritoneal thickness quantification, parietal peritoneum sized 1.0×0.5 cm were sampled from four separate peritoneal sites of each rat, including right ventral, left ventral, right lateral, and left lateral abdomen. For each sampling site, the peritoneal thickness was averaged from 15 evenly measured points. Tissue sections were stained with Masson's trichrome to quantify peritoneal fibrosis. The number of mesothelial cells was determined by morphometric method. The hematoxylin and eosin-stained sections were digitalized using an Aperio ScanScope slide scanner (Aperio, San Diego, Calif., USA) at its highest resolution. The mean mesothelial cells per mm surface of peritoneal membrane were counted from 15 points in each peritoneal tissue section from four separate peritoneal areas per animal. The peritoneal angiogenesis was quantified as described by Patel et al.. […] The mean vessels per mm peritoneal membrane were counted from 15 points in each peritoneal tissue section from four separate peritoneal areas per animal.

[6] = test system: rat peritoneal mesothelial cells (RPMC); assay: TGF-β1-treated rat peritoneal mesothelial cell (RPMC) culture: morphology; format: cell-based; conditions: 5 μM, 1 hour pretreatment, then with TGF-β1 for 5 days
Description: The primary culture of rat peritoneal mesothelial cells (RPMC) were isolated from 5-week-old male SD rats. Trypsin-EDTA (Gibco, Grand Island, N.Y., USA) (1.25%; 100 mL/kg) was injected intra-peritoneally and was then aspirated after a 2-hour dwelling. The aspirate was centrifuged for 10 minutes at 1500 rpm, and was washed with phosphate buffered saline, and then cultured in DMEM containing 10% fetal bovine serum, and 1% penicillin/streptomycin/L-glutamine.
as §4

[7] = test system: human peritoneal mesothelial cells (HPMC); assay: PCR analysis of type I collagen in TGF-β1-treated HPMC; format: cell-based; conditions: low TGF-β1 concentrations (0.01-0.05 ng/mL), differences not statistically significant
Description: as §1, §4
For mRNA expression analysis of peritoneal tissue TGF-β1, VEGF, and Snail, the rat peritoneum was resected and incubated with trypsin at 37° C. for 30 minutes. The mesothelium was then scratched from peritoneal surface and collected for reverse transcription-polymerase chain reaction (RT-PCR). In the mesothelial cell culture, the mRNA expression of CB1R, CB2R, and type I collagen were also assessed by the PCR analysis. […]

rat peritoneum = assay: Intra-peritoneal PDF containing MGO in rats (peritoneal injury); format: in vivo, Sprague-Dawley (SD) rats; conditions: n=6
Description: All animal experiments were performed following the guidelines of the Institutional Committee for Animal Experimentation of Taipei Veterans General Hospital. Five week-old male Sprague-Dawley (SD) rats were purchased from the Laboratory Animal Center of National Yang-Ming University. Peritoneal dialysis fluid (PDF) was prepared according to Hirahara et al. [10;22], containing 2.5% glucose, 100 mmol/L NaCl, 35 mmol/L sodium lactate, 2 mmol/L CaCl2, and 0.7 mmol/L MgCl2, in a pH of 5.0. To test MGO effects, fifty mL/kg of PDF containing 0, 3, 6, 12 mM MGO (Sigma, St. Louis, Mo., USA) were injected intra-peritoneally for ten consecutive days. Dimethyl sulfoxide (DMSO) (Sigma, St. Louis, Mo., USA) was used as the solvent of MGO. […]
Certain sections of rat peritoneal tissues were frozen at −80° C. for immunofluorescent analysis, while the remainder were fixed in a neutral formalin solution and then embedded in paraffin for histological analysis. […] For peritoneal thickness quantification, parietal peritoneum sized 1.0×0.5 cm were sampled from four separate peritoneal sites of each rat, including right ventral, left ventral, right lateral, and left lateral abdomen. For each sampling site, the peritoneal thickness was averaged from 15 evenly measured points. […] The number of mesothelial cells was determined by morphometric method. […]

[8] = in the presence of TGF-β1, immunofluorescent staining

## TGF-β1: exogenous TGF-β1 (R&D systems) used to treat mesothelial cells
[1]
  CBR levels (CB1R, CB2R mRNA): no significant effect

## C=C(C)[C@@H]1CCC(C)=C[C@H]1c1c(O)cc(CCCCC)cc1O [cannabidiol]
[2]
  tolerability on long-term administration: well-tolerated without adverse effects

## Cc1c(C(=O)NN2CCOCC2)nn(-c2ccc(Cl)cc2Cl)c1-c1ccc(I)cc1 [AM281, N-(morpholin-1-yl)-1-(2,4-dichlorophenyl)-5-(4-iodophenyl)-4-methyl-1H-pyrazole-3-carboxamide]
[3]
  up-regulated Snail after MGO treatment: attenuated
  up-regulated TGF-β1 after MGO treatment: attenuated
  up-regulated VEGF after MGO treatment: attenuated
[4]; 5 μM, 1 hour pretreatment, then with TGF-β1 for 5 days
  TGF-β1-induced cell elongation: reduces
[4]; [8]
  expression of E-cadherin: preserving
  expression of cytokeratin 8/18: preserving
  type I collagen synthesis: inhibited
TGF-β1-activated PI3K
  TGF-β1-activated PI3K: suppressed
[5]; 6 mM MGO 10 days
  MGO-induced mesothelial cell detachment: attenuated
[5]; 6 mM MGO 10 days, α-SMA staining
  MGO-induced angiogenesis: attenuated
[5]
  MGO-induced peritoneal thickening: significantly attenuated
[6]
  TGF-β1-induced cell elongation: reduces

## CN1CCCCC1Cn1cc(C(=O)c2cc([N+](=O)[O-])ccc2I)c2ccccc21 (stereo not drawn) [AM1241, (2-iodo-5-nitrophenyl)-[1-[(1-methylpiperidin-2-yl)methyl]indol-3-yl]methanone]
[7]
  type I collagen synthesis: tended to suppress
[5]
  MGO-induced peritoneal thickening: significantly attenuated

## CC(=O)C=O [MGO, methylglyoxal]
Rat peritoneum; PDF containing 0, 3, 6, 12 mM MGO i.p. for ten consecutive days
  peritoneal thickness: significant increase
Rat peritoneum; higher concentration of MGO (6-12 mM), i.p. ten days
  surface mesothelial cells: prominent loss
